Values quoted from earlier work, collected in publication PMC7400446, “Antimicrobial and Antifungal Activity of Rare Substituted 1,2,3-Thiaselenazoles and Corresponding Matched Pair 1,2,3-Dithiazoles” (Antibiotics, 2020).
pIC50: −log10 of the molar value. In brackets after ≈: the same amount, converted by molar mass.

Assays:
Conditions in all cases: cited from earlier work
S. aureus = tested on: S. aureus; design: method as in PMID 19036587, doi:10.1016/0960-894X(96)00062-5, doi:10.1016/0960-894X(96)00423-4, doi:10.1016/S0223-5234(98)80040-8
E. faecalis = tested on: E. faecalis; design: method as in PMID 19036587, doi:10.1016/0960-894X(96)00062-5, doi:10.1016/0960-894X(96)00423-4, doi:10.1016/S0223-5234(98)80040-8
L. monocytogenes = tested on: L. monocytogenes; design: method as in PMID 19036587, doi:10.1016/0960-894X(96)00062-5, doi:10.1016/0960-894X(96)00423-4, doi:10.1016/S0223-5234(98)80040-8
C. neoformans = tested on: C. neoformans; design: method as in earlier work
K562 = tested on: K562; design: method as in PMID 19036587, PMID 23010140, PMID 28709952
L1210 = tested on: L1210; design: method as in PMID 19036587, PMID 23010140, PMID 28709952
ASCT2 Transport = tested on: ASCT2 Transport; design: method as in PMID 19036587, PMID 23010140, PMID 28709952

Compound | MIC E. faecalis (E. faecalis) [µg/mL] | MIC L. monocytogenes (L. monocytogenes) [µg/mL] | MIC C. neoformans (C. neoformans) [µg/mL] | other results
Clc1nss/c1=N/c1ccccc1 [Compound 4] | 16 (≈ 70 µM) | 16 (≈ 70 µM) | – | MIC S. aureus (S. aureus): 16 µg/mL (≈ 70 µM)
COc1ccc(/N=c2/ssnc2Cl)cc1 [Compound 7] | – | – | 8 (≈ 30.9 µM) | –
COc1ccccc1/N=c1/ssnc1Cl [Compound 5] | 16 (≈ 61.8 µM) | 16 (≈ 61.8 µM) | – | –
N#Cc1ncn(CCc2ccccc2)c1/N=c1/ssnc1Cl [Compound 2] | – | – | – | pIC50 (K562): 5.40; pIC50 (L1210): 5.52
FC(F)(F)Oc1ccc(/N=c2/ssnc2Cl)cc1Cl [Compound 3] | – | – | – | pIC50 (ASCT2 Transport): 5.09
N#Cc1ccccc1/N=c1/ssnc1Cl [Compound 6] | – | – | 8 (≈ 31.5 µM) | –
